The record followed here is patent US12390402B2, “High-content and sustained-release retinoid capsule, and composition for reducing wrinkles, containing same” (LG HOUSEHOLD & HEALTH CARE LTD., priority 2018, dated 2025).

The structures appear in SMILES notation.

The nature of this data set: Solubility of retinoic acid in the liquid lipid. The class given is physicochemical. Here is the method:
FIG. 2 is the result of the solubility in oil according to the binding of an amine compound and retinoid.
As shown in the Table 2, the maximum concentration of the retinoic acid soluble in the liquid lipid was 0.1% of the weight of the liquid lipid, and when added more the above, the retinoic acid was not dissolved, making it impossible to synthesize capsules (Comparative examples 1, 2, 3). On the other hand, it was determined that the solubility of retinoic acid was increased over 10% of the weight of the liquid lipid, when the amine compound at the same mole concentration as retinoic acid was added during dissolving retinoic acid in the liquid lipid (See Table 2). Through this, the dry weight of the retinoid in the final capsule after washing could be increased 100 times from conventional 0.03% to 3%.

`CC1=C(/C=C/C(C)=C/C=C/C(C)=C/C(=O)O)C(C)(C)CCC1` [retinoic acid]: the “solubility of retinoic acid in the liquid lipid” value (amine compound added at the same mole concentration as retinoic acid) was “over 10 % of the weight of the liquid lipid”. The “maximum concentration of the retinoic acid soluble in the liquid lipid” value (without amine compound, caprylic/capryl triglyceride) is given as 0.1 % of the weight of the liquid lipid.
